# Test results: patent publication US6037447A, “Glycopeptide compounds” (priority 1998, dated 2000)
# How the values were obtained:
# [1] = system: Staphylococcus aureus SA1199; test: Standard broth micro-dilution MIC, Staphylococcus aureus SA1199; type: cell-based
# Description: (§1) The minimal inhibitory concentrations (MICs) were determined using a standard broth micro-dilution assay.
# [2] = system: Enterococcus gallinarum 245; test: Standard broth micro-dilution MIC, Enterococcus gallinarum 245; type: cell-based
# Description: as §1
# [3] = system: vancomycin-resistant enterococci; test: In Vitro Activity Against Enterococci, vancomycin-resistant strains; type: cell-based; conditions: representative vancomycin-resistant enterococci (Enterococcus faecium and Enterococcus faecalis)
# Description: as §1
# Enterococcus faecium 180 = test: Standard broth micro-dilution MIC, Enterococcus faecium 180; type: cell-based
# Description: as §1
# [4] = system: Staphylococcus aureus 491; test: Standard broth micro-dilution MIC, Staphylococcus aureus 491; type: cell-based
# Description: as §1
# [5] = system: Streptococcus pneumoniae P1; test: Standard broth micro-dilution MIC, Streptococcus pneumoniae P1; type: cell-based
# Description: as §1
# [6] = system: Staphylococcus aureus 447; test: Standard broth micro-dilution MIC, Staphylococcus aureus 447; type: cell-based
# Description: as §1
# [7] = system: Staphylococcus aureus S13E; type: cell-based
# Description: as §1
# [8] = system: Staphylococcus aureus SA1199A; test: Standard broth micro-dilution MIC, Staphylococcus aureus SA1199A; type: cell-based
# Description: as §1
# [9] = system: Enterococcus faecium 180-1; test: Standard broth micro-dilution MIC, Enterococcus faecium 180-1; type: cell-based
# Description: as §1
# [10] = system: Staphylococcus epidermidis 270; test: Standard broth micro-dilution MIC, Staphylococcus epidermidis 270; type: cell-based
# Description: as §1
# [11] = system: Staphylococcus aureus SA119913; test: Standard broth micro-dilution MIC, Staphylococcus aureus SA119913; type: cell-based
# Description: as §1
# [12] = system: Enterococcus faecalis 276; test: Standard broth micro-dilution MIC, Enterococcus faecalis 276; type: cell-based
# Description: as §1
# Escherichia coli EC14 = test: Standard broth micro-dilution MIC, Escherichia coli EC14; type: cell-based
# Description: as §1
# [13] = system: Staphylococcus aureus X778; test: Standard broth micro-dilution MIC, Staphylococcus aureus X778; type: cell-based
# Description: as §1
# [14] = system: Staphylococcus aureus 446; test: Standard broth micro-dilution MIC, Staphylococcus aureus 446; type: cell-based
# Description: as §1
# [15] = system: Streptococcus pyogenes C203; test: Standard broth micro-dilution MIC, Streptococcus pyogenes C203; type: cell-based
# Description: as §1
# [16] = system: Staphylococcus haemolyticus 105; test: Standard broth micro-dilution MIC, Staphylococcus haemolyticus 105; type: cell-based
# Description: as §1
# [17] = system: Enterococcus faecalis 2041; test: Standard broth micro-dilution MIC, Enterococcus faecalis 2041; type: cell-based
# Description: as §1
# [18] = system: Staphylococcus haemolyticus 415; test: Standard broth micro-dilution MIC, Staphylococcus haemolyticus 415; type: cell-based
# Description: as §1
# [19] = system: vancomycin-sensitive enterococci; test: In Vitro Activity Against Enterococci, vancomycin-sensitive strains; type: cell-based, Enterococcus faecium and Enterococcus faecalis; conditions: for mean geometric MIC, Vancomycin Sensitive Strains: representative vancomycin-sensitive enterococci (Enterococcus faecium and Enterococcus faecalis)
# Description: as §1
# [20] = system: Staphylococcus aureus 489; test: Standard broth micro-dilution MIC, Staphylococcus aureus 489; type: cell-based
# Description: as §1
# [21] = system: Staphylococcus aureus X400; test: Standard broth micro-dilution MIC, Staphylococcus aureus X400; type: cell-based
# Description: as §1
molecule,measurement,setting,value
N^4 -(4-(8-(p-formylphenoxy)-n-octyloxy)benzyl)vancomycin [Compound 40],MIC,[1],0.25 µg/mL
same,MIC,[2],1 µg/mL
same,"mean geometric MIC, Vancomycin Resistant Strains",[3],11.3 µg/mL
same,MIC,Enterococcus faecium 180,1 µg/mL
same,MIC,[4],≤ 0.06 µg/mL
same,MIC,[5],0.06 µg/mL
same,MIC,[6],0.25 µg/mL
same,MIC,[7],0.25 µg/mL
same,MIC,[8],≤ 0.06 µg/mL
same,MIC,[9],≤ 0.06 µg/mL
same,MIC,[10],0.25 µg/mL
same,MIC,[11],1 µg/mL
same,MIC,[12],0.25 µg/mL
same,MIC,Escherichia coli EC14,> 64 µg/mL
same,MIC,[13],≤ 0.06 µg/mL
same,MIC,[14],0.5 µg/mL
same,MIC,[15],0.06 µg/mL
same,MIC,[16],1 µg/mL
same,MIC,[17],0.125 µg/mL
same,MIC,[18],4 µg/mL
same,"mean geometric MIC, Vancomycin Sensitive Strains",[19],0.19 µg/mL
"CN[C@H](CC(C)C)C(=O)N[C@H]1C(=O)N[C@@H](CC(N)=O)C(=O)N[C@H]2C(=O)N[C@H]3C(=O)N[C@H](C(=O)N[C@H](C(=O)O)c4cc(O)cc(O)c4-c4cc3ccc4O)[C@H](O)c3ccc(c(Cl)c3)Oc3cc2cc(c3O[C@@H]2O[C@H](CO)[C@@H](O)[C@H](O)[C@H]2O[C@H]2C[C@](C)(N)[C@H](O)[C@H](C)O2)Oc2ccc(cc2Cl)[C@H]1O [Vancomycin, reference compound]",MIC,Enterococcus faecium 180,> 64 µg/mL
same,MIC,[12],1 µg/mL
same,MIC,[17],2 µg/mL
same,MIC,"[19]; read-out: mean geometric MIC, Vancomycin Sensitive Strains",3.9 µg/mL
N^4 -(4(3-(3-(3-(p-formylphenoxy)-n-propyloxy)phenoxy)-n-propyloxy)-benzyl)vancomycin [Compound 52],"mean geometric MIC, Vancomycin Resistant Strains",[3],4.8 µg/mL
same,"mean geometric MIC, Vancomycin Sensitive Strains",[19],0.093 µg/mL
"5-n-pentyl-1,3-phenylene-bis[(oxy-1,3-n-propyleneoxy-4,1-phenylene)methylene]-bis-[vancomycin] [Compound 61]",MIC,[1],8 µg/mL
same,MIC,[2],1 µg/mL
same,"mean geometric MIC, Vancomycin Resistant Strains",[3],2 µg/mL
same,MIC,Enterococcus faecium 180,1 µg/mL
same,MIC,[4],2 µg/mL
same,MIC,[5],2 µg/mL
same,MIC,[6],16 µg/mL
same,MIC,[7],16 µg/mL
same,MIC,[20],4 µg/mL
same,MIC,[21],8 µg/mL
same,MIC,[8],1 µg/mL
same,MIC,[9],0.5 µg/mL
same,MIC,[10],4 µg/mL
same,MIC,[11],16 µg/mL
same,MIC,[12],2 µg/mL
same,MIC,[13],4 µg/mL
same,MIC,[14],8 µg/mL
same,MIC,[15],1 µg/mL
same,MIC,[16],1 µg/mL
same,MIC,[17],2 µg/mL
same,MIC,[18],8 µg/mL
same,"mean geometric MIC, Vancomycin Sensitive Strains",[19],1.2 µg/mL
"1,3-phenylene-bis-[(oxy-1,3-n-propyleneoxy-4,1-phenylene)]-methylene]-bis-[vancomycin] [Compound 12]",MIC,[1],4 µg/mL
same,MIC,[2],0.06 µg/mL
same,"mean geometric MIC, Vancomycin Resistant Strains",[3],4.0 µg/mL
same,MIC,Enterococcus faecium 180,≤ 0.06 µg/mL
same,MIC,[4],2 µg/mL
same,MIC,[5],0.06 µg/mL
same,MIC,[6],8 µg/mL
same,MIC,[7],4 µg/mL
same,MIC,[20],2 µg/mL
same,MIC,[21],2 µg/mL
same,MIC,[8],1 µg/mL
same,MIC,[10],4 µg/mL
same,MIC,[11],4 µg/mL
same,MIC,[12],1 µg/mL
same,MIC,[13],2 µg/mL
same,MIC,[14],8 µg/mL
same,MIC,[15],0.06 µg/mL
same,MIC,[16],4 µg/mL
same,MIC,[17],0.25 µg/mL
same,MIC,[18],4 µg/mL
same,"mean geometric MIC, Vancomycin Sensitive Strains",[19],0.66 µg/mL
N^4 -(4-(3-(3-(3-(p-formylphenoxy)-n-propoxy)-5-phenylphenoxy)-n-propoxy)benzyl)vancomycin [Compound 45],MIC,[1],0.5 µg/mL
same,MIC,[2],0.5 µg/mL
same,"mean geometric MIC, Vancomycin Resistant Strains",[3],2.8 µg/mL
same,MIC,Enterococcus faecium 180,0.5 µg/mL
same,MIC,[4],0.5 µg/mL
same,MIC,[5],0.06 µg/mL
same,MIC,[6],1 µg/mL
same,MIC,[7],0.5 µg/mL
same,MIC,[20],2 µg/mL
same,MIC,[21],0.5 µg/mL
same,MIC,[8],≤ 0.06 µg/mL
same,MIC,[10],1 µg/mL
same,MIC,[11],0.5 µg/mL
same,MIC,[12],0.25 µg/mL
same,MIC,Escherichia coli EC14,> 64 µg/mL
same,MIC,[13],0.5 µg/mL
same,MIC,[14],1 µg/mL
same,MIC,[15],0.06 µg/mL
same,MIC,[16],0.5 µg/mL
same,MIC,[17],0.125 µg/mL
same,MIC,[18],2 µg/mL
same,"mean geometric MIC, Vancomycin Sensitive Strains",[19],0.33 µg/mL
N^4 -(4-(3-(p-formylphenoxy)-n-propyloxy)benzyl)vancomycin [Compound 34],MIC,[1],≤ 0.06 µg/mL
same,MIC,[2],1 µg/mL
same,"mean geometric MIC, Vancomycin Resistant Strains",[3],53 µg/mL
same,MIC,Enterococcus faecium 180,0.5 µg/mL
same,MIC,[4],≤ 0.06 µg/mL
same,MIC,[5],0.06 µg/mL
same,MIC,[6],≤ 0.06 µg/mL
same,MIC,[7],≤ 0.06 µg/mL
same,MIC,[20],≤ 0.06 µg/mL
same,MIC,[21],≤ 0.06 µg/mL
same,MIC,[8],≤ 0.06 µg/mL
same,MIC,[9],≤ 0.06 µg/mL
same,MIC,[10],0.25 µg/mL
same,MIC,[11],≤ 0.06 µg/mL
same,MIC,[12],≤ 0.06 µg/mL
same,MIC,[13],≤ 0.06 µg/mL
same,MIC,[14],≤ 0.06 µg/mL
same,MIC,[15],0.06 µg/mL
same,MIC,[16],0.5 µg/mL
same,MIC,[17],≤ 0.06 µg/mL
same,MIC,[18],2 µg/mL
same,"mean geometric MIC, Vancomycin Sensitive Strains",[19],0.87 µg/mL
"1,3-phenylenebis[oxy-1,3-n-propylene-oxy-4,1-phenylene)methylene]bis-[A82846B,(3-dimethylaminopropyl)-amide] [Compound 71]",MIC,[1],4 µg/mL
same,MIC,[2],0.5 µg/mL
same,"mean geometric MIC, Vancomycin Resistant Strains",[3],2.4 µg/mL
same,MIC,Enterococcus faecium 180,2 µg/mL
same,MIC,[4],2 µg/mL
same,MIC,[5],0.5 µg/mL
same,MIC,[6],4 µg/mL
same,MIC,[7],2 µg/mL
same,MIC,[20],2 µg/mL
same,MIC,[21],4 µg/mL
same,MIC,[8],2 µg/mL
same,MIC,[9],0.5 µg/mL
same,MIC,[10],1 µg/mL
same,MIC,[11],2 µg/mL
same,MIC,[12],1 µg/mL
same,MIC,[13],2 µg/mL
same,MIC,[14],4 µg/mL
same,MIC,[15],0.5 µg/mL
same,MIC,[16],2 µg/mL
same,MIC,[17],0.5 µg/mL
same,MIC,[18],2 µg/mL
same,"mean geometric MIC, Vancomycin Sensitive Strains",[19],0.38 µg/mL
"CN[C@H](CC(C)C)C(=O)N[C@H]1C(=O)N[C@@H](CC(N)=O)C(=O)N[C@H]2C(=O)N[C@H]3C(=O)N[C@H](C(=O)N[C@H](C(=O)O)c4cc(O)cc(O)c4-c4cc3ccc4O)[C@H](O[C@H]3C[C@](C)(N)[C@@H](O)[C@H](C)O3)c3ccc(c(Cl)c3)Oc3cc2cc(c3O[C@@H]2O[C@H](CO)[C@@H](O)[C@H](O)[C@H]2O[C@H]2C[C@](C)(N)[C@@H](O)[C@H](C)O2)Oc2ccc(cc2Cl)[C@H]1O [Compound A82846B, A82846B, reference compound]","mean geometric MIC, Vancomycin Resistant Strains",[3],29 µg/mL
same,MIC,Enterococcus faecium 180,8 µg/mL
same,MIC,[20],≤ 0.06 µg/mL
same,MIC,[8],≤ 0.06 µg/mL
same,"mean geometric MIC, Vancomycin Sensitive Strains",[19],0.22 µg/mL
